Test results from ChEMBL document CHEMBL4304749, “Covalent Inhibitors of Protein-Protein Interactions Targeting Lysine, Tyrosine, or Histidine Residues” (J Med Chem, 2019).
One block for each molecule: values may come before it. Square brackets hold non-standard residues; d marks the D form. Peptide text beside a SMILES is read from it. Tyr(SO2F) = N[C@@H](Cc1ccc(OS(=O)(=O)F)cc1)C(=O)O; NMeA = CN[C@@H](C)C(=O)O

Columns and labels:
[1] = Half-life in 50 mM phosphate buffer of pH 7.5 at 37 degreeC by 1H NMR method; format: physicochemical; conditions: for half-life: phosphate buffer; for t1/2: buffer
[2] = Stability in mouse plasma at 200 uM by LC-MS method; format: ADME, cell-free
[3] = Aqueous stability of the compound in simulated gastric fluid at pH 1.5 by NMR spectroscopy
[4] = Half-life of the compound at pH 7.2 by NMR spectroscopy; format: physicochemical
[5] = Half-life in mouse plasma at 200 uM by LC-MS method; format: ADME, cell-free
[6] = Drug degradation in mouse plasma at 200 uM after 40 min by LC-MS method; format: ADME, cell-free; conditions: read-out: Drug degradation
[7] = Aqueous stability of the compound pH 7.2 by NMR spectroscopy; format: physicochemical; conditions: buffer
[8] = molecular target: T1, E3 ubiquitin-protein ligase XIAP (Homo sapiens, UniProt P98170)
[9] = molecular target: T1, E3 ubiquitin-protein ligase XIAP; remark: listed apart in the source
[10] = test system: SK-OV-3; assay: Induction of apoptosis in human SKOV3 cells assessed caspase-3 activation after 24 hrs by IncuCyte S3 live-cell analysis; format: functional, cell-based; conditions: SK-OV-3, 24 h
[11] = molecular target: T1, E3 ubiquitin-protein ligase XIAP; assay: biochemical
[12] = test system: SK-OV-3; assay: Induction of apoptosis in human SKOV3 cells assessed caspase-3 activation after 48 hrs by IncuCyte S3 live-cell analysis; format: functional, cell-based; conditions: SK-OV-3, 48 h
[13] = molecular target: T1, E3 ubiquitin-protein ligase XIAP; assay: biochemical; remark: listed apart in the source

T1 sequence (P98170 whole entry): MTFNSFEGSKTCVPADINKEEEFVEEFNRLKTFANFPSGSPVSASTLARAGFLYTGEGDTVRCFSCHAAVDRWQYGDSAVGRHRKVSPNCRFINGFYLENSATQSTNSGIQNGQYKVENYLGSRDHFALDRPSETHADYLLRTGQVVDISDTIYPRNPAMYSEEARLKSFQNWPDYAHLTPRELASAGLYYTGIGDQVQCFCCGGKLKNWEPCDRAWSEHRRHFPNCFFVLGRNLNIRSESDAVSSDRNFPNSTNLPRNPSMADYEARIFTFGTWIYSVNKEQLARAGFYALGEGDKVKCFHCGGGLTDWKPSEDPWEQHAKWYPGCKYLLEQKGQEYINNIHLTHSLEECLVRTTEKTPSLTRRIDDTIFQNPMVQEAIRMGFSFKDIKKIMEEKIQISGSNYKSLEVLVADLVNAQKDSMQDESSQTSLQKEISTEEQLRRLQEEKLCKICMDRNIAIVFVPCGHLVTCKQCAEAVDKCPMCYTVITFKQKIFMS

Structure (SMILES): CN[C@@H](C)C(=O)N[C@@H](CNC(=O)c1ccc(S(=O)(=O)F)cc1)C(=O)N1CCC[C@H]1C(=O)N[C@@H](Cc1ccccc1)C(N)=O
half-life [1]: 0.5 h
Stability [2]: Unstable
Stability [3]: Stable
half-life [4]: 0.5 h

Structure (SMILES): CN[C@@H](C)C(=O)N[C@@H](Cc1ccc(S(=O)(=O)O)cc1)C(=O)N1CCC[C@H]1C(=O)N[C@@H](Cc1ccccc1)C(N)=O
t1/2 [1]: > 5 h

Structure (SMILES): CN[C@@H](C)C(=O)N[C@@H](Cc1ccc(OS(=O)(=O)F)cc1)C(=O)N1CCC[C@H]1C(=O)N[C@@H]1CCc2c(F)cccc21
half-life at 200 µM [5]: > 2 h

Structure (SMILES): CN[C@@H](C)C(=O)N[C@@H](CNCc1ccc(S(=O)(=O)F)cc1)C(=O)N1CCC[C@H]1C(=O)N[C@@H]1CCc2c(F)cccc21
metabolised at 40 min, 200 µM [6]: 100%
half-life at 200 µM [5]: 0.25 h

Structure (SMILES): CN[C@@H](C)C(=O)N[C@@H](CNCc1ccc(S(=O)(=O)F)cc1)C(=O)N1CCC[C@H]1C(=O)N[C@@H](Cc1ccccc1)C(N)=O
half-life [1]: 2.5 h
Stability [3]: Stable
Stability [7]: Stable

Structure (SMILES): CN[C@@H](C)C(=O)N[C@@H](Cc1ccc(OS(=O)(=O)F)cc1)C(=O)N1CCC[C@H]1C(=O)NC1Cc2ccccc2C1
half-life at 200 µM [5]: > 2 h

Structure (SMILES): CC(C)[C@H](NC(=O)[C@H](C)N)C(=O)N1CCC[C@H]1C(=O)N[C@@H](Cc1ccccc1)C(=O)O (H-AVPF-OH)
half-life [1]: > 5 h
ΔTm [8]: 5.5 °C
ΔTm [9]: 17 °C

Structure (SMILES): CN[C@@H](C)C(=O)N[C@@H](Cc1ccc(OS(=O)(=O)F)cc1)C(=O)N1CCC[C@H]1C(=O)N[C@@H](Cc1ccccc1)C(N)=O (H-[NMeA][Tyr(SO2F)]PF-NH2)
t1/2 [1]: > 5 h
Stability [3]: Stable
Stability [7]: Stable

Structure (SMILES): CN[C@@H](C)C(=O)N[C@H](C(=O)N1CCC[C@H]1C(=O)Nc1snnc1-c1ccccc1)C1CCCCC1 [GDC-0152]
EC50 [10]: 3 nM
IC50 [11]: 21 nM
ΔTm [8]: 15 °C
half-life at 200 µM [5]: 1 h
ΔTm [9]: 19.5 °C
EC50 [12]: 2.5 nM
IC50 [13]: 21 nM

EC50 [10]: 3 nM
half-life at 200 µM [5]: > 2 h
EC50 [12]: 1 nM
Structure (SMILES): CN[C@@H](C)C(=O)N[C@H](C(=O)N1CCC[C@H]1c1nc(C(=O)c2ccc(F)cc2)cs1)C1CCCCC1 [LCL-161]
